Experimental data reported in PMC5976239 (Journal of medicinal chemistry, 2017).
Values after ≈ are worked out from the molar mass of the structure shown. Like-named read-outs stand apart in the source and are kept apart here.

Assays:
[1] = test system: C. albicans ATCC 64124(R) (B); assay: MIC determination by in vitro antifungal assay; format: cell-based; settings: Candida albicans, ATCC64124, 48 h
[2] = test system: Aspergillus flavus ATCC MYA-3631 (K); assay: MIC determination against filamentous fungi; format: cell-based; settings: 48 h, read-out: MIC (MIC-0)
[3] = test system: C. albicans ATCC MYA-2876(S) (C); assay: MIC determination by in vitro antifungal assay; format: cell-based; settings: Candida albicans, 48 h
[4] = test system: C. albicans ATCC MYA-2310(S) (E); assay: MIC determination by in vitro antifungal assay; format: cell-based; settings: Candida albicans, 48 h
[5] = test system: C. albicans ATCC MYA-1003(R) (G); assay: MIC determination by in vitro antifungal assay; format: cell-based; settings: Candida albicans, 48 h
[6] = test system: C. albicans ATCC 90819(R) (D); assay: MIC determination by in vitro antifungal assay; format: cell-based; settings: Candida albicans, ATCC90819, 48 h
[7] = test system: C. albicans, non-albicans Candida, and Aspergillus strains; assay: Antifungal activity over the panel of 13 fungal strains; format: cell-based; settings: read-out: antifungal activity class based on MIC values
[8] = test system: Aspergillus nidulans ATCC 38163 (L); assay: MIC determination in the presence and absence of FBS; format: cell-based; settings: ATCC38163, read-out: MIC, Aspergillus nidulans ATCC 38163 (L) (no FBS)
[9] = test system: Aspergillus nidulans ATCC 38163 (L); assay: MIC determination against filamentous fungi; format: cell-based; settings: ATCC38163, 48 h, read-out: MIC (MIC-0)
Hemolytic activity assay = format: cell-based; settings: mouse, murine red blood cells (mRBCs)
A549 = assay: In vitro cytotoxicity assay; format: cell-based; settings: 24 h
[10] = test system: Candida albicans ATCC 10231 (A); assay: MIC determination in the presence and absence of FBS; format: cell-based; settings: for MIC: Candida albicans, ATCC10231, read-out: MIC, Candida albicans ATCC 10231 (A) (no FBS); for antifungal activity in the presence of FBS (in words): strains A, J, and L, +10% FBS versus no FBS
[11] = test system: Aspergillus terreus ATCC MYA-3633 (M); assay: MIC determination against filamentous fungi; format: cell-based; settings: 48 h, read-out: MIC (MIC-0)
HEK-293 = assay: In vitro cytotoxicity assay; format: cell-based; settings: 24 h; for toxicity to mammalian cells (in words): 18 and 20 at 7.8 µg/mL
[12] = test system: C. albicans ATCC 64124 (strain B) biofilms; assay: Biofilm assay
[13] = test system: C. albicans ATCC MYA-1237(R) (F); assay: MIC determination by in vitro antifungal assay; format: cell-based; settings: Candida albicans, 48 h
BEAS-2B = assay: In vitro cytotoxicity assay; format: cell-based; settings: 24 h; for toxicity to mammalian cells (in words): 18 and 20 at 7.8 µg/mL
[14] = test system: Candida albicans ATCC 10231 (A); assay: MIC determination by in vitro antifungal assay; format: cell-based; settings: ATCC10231, 48 h, read-out: MIC (MIC-0)
[15] = test system: C. albicans ATCC 10231 (strain A); assay: Membrane permeabilization assay using propidium iodide staining; format: cell-based, Candida albicans; settings: 1 h at 35 °C; 20 and 26 at 4 × MIC, KANB (C14) at 2 × MIC ([…]), FLC at 7.8 µg/mL
[16] = test system: C. parapsilosis ATCC 22019 (strain J); assay: Time-kill assay; format: cell-based, Candida parapsilosis; settings: 24 h, at up to 8× MIC
[17] = test system: C. glabrata ATCC 2001 (strain H); assay: Time-kill assay; format: cell-based, Candida glabrata; settings: 24 h, compound 22 at 4× MIC, VOR at 1× and 4× MIC
[18] = test system: C. albicans ATCC 10231 (strain A); assay: Time-kill assay; format: cell-based, Candida albicans; settings: 24 h, compound 20 at 4× MIC, VOR at 1× and 4× MIC

CCCCCCCCCCCCCCN1CCNCC1 [Compound 9, 1-Tetradecyl Piperazine]
MIC ([1]; read-out: MIC (MIC-0)): 0.975 µg/mL (≈ 3.45 µM) | MIC [2]: 0.975 µg/mL (≈ 3.45 µM) | MIC ([3]; read-out: MIC (MIC-0)): 0.975 µg/mL (≈ 3.45 µM) | MIC ([4]; read-out: MIC (MIC-0)): 0.975 µg/mL (≈ 3.45 µM) | MIC ([5]; read-out: MIC (MIC-0)): 1.95 µg/mL (≈ 6.9 µM) | MIC ([6]; read-out: MIC (MIC-0)): 1.95 µg/mL (≈ 6.9 µM) | MIC [7]: 0.015 to 1.95 µg/mL (≈ 0.0531 to 6.9 µM) | MIC [8]: 0.975 µg/mL (≈ 3.45 µM) | MIC [9]: 0.975 µg/mL (≈ 3.45 µM) | hemolysis at 60 min, 7.8 µg/mL (Hemolytic activity assay): 93% | toxicity to mammalian cells (in words) (A549): toxic | MIC [10]: 0.975 µg/mL (≈ 3.45 µM) | MIC [11]: 0.975 µg/mL (≈ 3.45 µM) | toxicity to mammalian cells (in words) (HEK-293): toxic | increase in MIC in biofilms (SMIC50 and SMIC80 versus MIC in liquid cultures) [12]: 16–64 fold | MIC ([13]; read-out: MIC (MIC-0)): 1.95 µg/mL (≈ 6.9 µM) | toxicity to mammalian cells (in words) (BEAS-2B): toxic | MIC [14]: 0.975 µg/mL (≈ 3.45 µM)

CCCCCCCCN1CCN(CC(O)(Cn2cncn2)c2ccc(F)cc2F)CC1 (stereo not shown) [Compound 18, 2-(2,4-Difluorophenyl)-1-(1H-1,2,4-triazol-1-yl)-3-(4-octylpiperazine)propan-2-ol]
MIC ([1]; read-out: MIC (MIC-0)): 31.3 µg/mL (≈ 71.9 µM) | MIC [2]: 1.95 µg/mL (≈ 4.48 µM) | MIC ([3]; read-out: MIC (MIC-0)): 31.3 µg/mL (≈ 71.9 µM) | MIC ([4]; read-out: MIC (MIC-0)): > 31.3 µg/mL | MIC ([5]; read-out: MIC (MIC-0)): 0.975 to 31.3 µg/mL (≈ 2.24 to 71.9 µM) | MIC ([6]; read-out: MIC (MIC-0)): 15.6 µg/mL (≈ 35.8 µM) | MIC [9]: 3.9 µg/mL (≈ 8.95 µM) | hemolysis at 60 min, 62.5 µg/mL (Hemolytic activity assay): < 10% | toxicity to mammalian cells (in words) (A549): nontoxic to A549 at up to 15.5 µg/mL | MIC [11]: 3.9 µg/mL (≈ 8.95 µM) | toxicity to mammalian cells (in words) (HEK-293): some toxicity | MIC ([13]; read-out: MIC (MIC-0)): 31.3 µg/mL (≈ 71.9 µM) | toxicity to mammalian cells (in words) (BEAS-2B): some toxicity | MIC [14]: 3.9 µg/mL (≈ 8.95 µM)

CCCCCCCCCCCCN1CCN(CC(O)(Cn2cncn2)c2ccc(Cl)cc2Cl)CC1 (stereo not shown) [Compound 26, 2-(2,4-Dichlorophenyl)-1-(1H-1,2,4-triazol-1-yl)-3-(4-dodecylpiperazine)propan-2-ol]
MIC ([1]; read-out: MIC (MIC-0)): 7.8 µg/mL (≈ 14.9 µM) | propidium iodide (PI) dye uptake by fungal cells [15]: neither compound 20 nor 26 (at 4 × MIC) induced cellular uptake of PI dye | hemolysis at 60 min, 7.8 µg/mL (Hemolytic activity assay): 85% | antifungal activity in the presence of FBS (in words) [10]: retained their full antifungal activity | increase in MIC in biofilms (SMIC50 and SMIC80 versus MIC in liquid cultures) [12]: 2–4 fold

CCCCCCCCCCCCN1CCN(CC(O)(Cn2cncn2)c2ccc(F)cc2F)CC1 (stereo not shown) [Compound 22, 2-(2,4-Difluorophenyl)-1-(1H-1,2,4-triazol-1-yl)-3-(4-dodecylpiperazine)propan-2-ol]
fungistatic or fungicidal activity (time-kill) [16]: fungistatic | hemolysis at 60 min, 7.8 µg/mL (Hemolytic activity assay): > 50% | cell survival (A549; 7.8 µg/mL): less than 40% | antifungal activity in the presence of FBS (in words) [10]: retained their full antifungal activity | cell survival (HEK-293; 7.8 µg/mL): less than 40% | increase in MIC in biofilms (SMIC50 and SMIC80 versus MIC in liquid cultures) [12]: 1–2 fold | fungistatic or fungicidal activity (time-kill) [17]: fungicidal | cell survival (BEAS-2B; 7.8 µg/mL): less than 40%

CCCCCCCCCCN1CCN(CC(O)(Cn2cncn2)c2ccc(F)cc2F)CC1 (stereo not shown) [Compound 20, 2-(2,4-Difluorophenyl)-1-(1H-1,2,4-triazol-1-yl)-3-(4-decylpiperazine)propan-2-ol]
MIC ([1]; read-out: MIC (MIC-0)): 3.9 µg/mL (≈ 8.41 µM) | MIC [2]: 0.24 µg/mL (≈ 0.518 µM) | propidium iodide (PI) dye uptake by fungal cells [15]: neither compound 20 nor 26 (at 4 × MIC) induced cellular uptake of PI dye | MIC ([5]; read-out: MIC (MIC-0)): 3.9 µg/mL (≈ 8.41 µM) | fungistatic or fungicidal activity (time-kill) [16]: fungistatic | MIC ([6]; read-out: MIC (MIC-0)): 3.9 µg/mL (≈ 8.41 µM) | fungistatic or fungicidal activity (time-kill) [18]: fungicidal | toxicity to mammalian cells (in words) (A549): no toxicity at up to 7.8 µg/mL | antifungal activity in the presence of FBS (in words) [10]: retained their full antifungal activity | toxicity to mammalian cells (in words) (HEK-293): some toxicity | increase in MIC in biofilms (SMIC50 and SMIC80 versus MIC in liquid cultures) [12]: 4–16 fold | toxicity to mammalian cells (in words) (BEAS-2B): some toxicity

C[C@@H](c1ncncc1F)[C@](O)(Cn1cncn1)c1ccc(F)cc1F [VOR, voriconazole, reference compound]
MIC ([1]; read-out: MIC (MIC-2)): 3.9 µg/mL (≈ 11.2 µM) | MIC ([3]; read-out: MIC (MIC-2)): 1.95 µg/mL (≈ 5.58 µM) | MIC ([4]; read-out: MIC (MIC-2)): 0.975 µg/mL (≈ 2.79 µM) | MIC ([5]; read-out: MIC (MIC-2)): 1.95 µg/mL (≈ 5.58 µM) | MIC ([6]; read-out: MIC (MIC-2)): 1.95 µg/mL (≈ 5.58 µM) | fungistatic or fungicidal activity (time-kill) [18]: fungistatic | fungistatic or fungicidal activity (time-kill) [17]: fungistatic | MIC ([13]; read-out: MIC (MIC-2)): 7.8 µg/mL (≈ 22.3 µM)

CCCCCCCCCCCCN1CCNCC1 [Compound 7]
MIC [8]: 1.95 µg/mL (≈ 7.66 µM) | MIC [9]: 1.95 µg/mL (≈ 7.66 µM) | hemolysis at 60 min, 7.8 µg/mL (Hemolytic activity assay): 52% | toxicity to mammalian cells (in words) (A549): toxic | MIC [10]: 1.95 µg/mL (≈ 7.66 µM) | toxicity to mammalian cells (in words) (HEK-293): toxic | increase in MIC in biofilms (SMIC50 and SMIC80 versus MIC in liquid cultures) [12]: 1–4 fold | toxicity to mammalian cells (in words) (BEAS-2B): toxic | MIC [14]: 1.95 µg/mL (≈ 7.66 µM)

C[C@@H]1[C@H](O)[C@@H](C)/C=C/C=C/C=C/C=C/C=C/C=C/C=C/[C@H](O[C@@H]2O[C@H](C)[C@@H](O)[C@H](N)[C@@H]2O)C[C@@H]2O[C@](O)(C[C@@H](O)C[C@@H](O)[C@H](O)CC[C@@H](O)C[C@@H](O)CC(=O)O[C@H]1C)C[C@H](O)[C@H]2C(=O)O [AmB, amphotericin B, reference compound]
MIC ([1]; read-out: MIC (MIC-0)): 3.9 µg/mL (≈ 4.22 µM) | MIC ([5]; read-out: MIC (MIC-0)): 3.9 µg/mL (≈ 4.22 µM) | MIC ([6]; read-out: MIC (MIC-0)): 0.975 µg/mL (≈ 1.06 µM) | MIC [8]: 3.9 µg/mL (≈ 4.22 µM) | MIC [9]: 3.9 µg/mL (≈ 4.22 µM) | MIC [10]: 3.9 µg/mL (≈ 4.22 µM) | MIC [11]: 3.9 µg/mL (≈ 4.22 µM) | MIC [14]: 3.9 µg/mL (≈ 4.22 µM)

CCCCCCCCCCCCCCOC[C@H]1O[C@H](O[C@@H]2[C@@H](O)[C@H](O[C@H]3O[C@H](CN)[C@@H](O)[C@H](O)[C@H]3N)[C@@H](N)C[C@H]2N)[C@H](O)[C@@H](N)[C@@H]1O [KANB (C14), reference compound]
propidium iodide (PI) dye uptake by fungal cells [15]: significantly increased PI dye uptake

OC(Cn1cncn1)(Cn1cncn1)c1ccc(F)cc1F [FLC, fluconazole, reference compound]
MIC ([1]; read-out: MIC (MIC-2)): > 125 µg/mL | propidium iodide (PI) dye uptake by fungal cells [15]: did not allow for PI uptake | MIC ([3]; read-out: MIC (MIC-2)): 15.6 µg/mL (≈ 50.9 µM) | MIC ([4]; read-out: MIC (MIC-2)): > 125 µg/mL | MIC ([6]; read-out: MIC (MIC-2)): > 125 µg/mL
